Legend:
[1] = test system: internal content of rat cecum; assay: Fermentation test by internal content of rat cecum; format: in vitro ADME
Procedure: The internal content of rat cecum was collected by anesthetizing a Wister male rat with ether, allowing the rat to die, collecting the internal content under anaerobic conditions, and suspending the resultant with 4-fold volumes of a 0.1 M aqueous solution of sodium bicarbonate. Cyclotetrasaccharide was added in an amount of about 7% by weight to the internal content of rat cecum, and the contents of cyclotetrasaccharide still remained just after and 12 hours after the addition of the internal content was quantified on gas chromatography. As a result, the contents of cyclotetrasaccharide of the former and latter were respectively 68.0 mg and 63.0 mg per one gram of the internal content of rat cecum.

[2] = test system: Clostridium perfringens JCM 3816; format: cell-based; conditions: PYF medium with 0.5% saccharide, 37° C., four days, anaerobic
[3] = test system: Lactobacillus acidophilus JCM 1132; assay: Assimilation test, Lactobacillus acidophilus; format: cell-based; conditions: PYF medium with 0.5% saccharide, 37° C., four days, anaerobic
mice = assay: Acute toxicity test, oral administration; format: in vivo
Source text: Based on this, the LD50 of cyclotetrasaccharide was at least 50 g/kg mouse body weight, though the data were not so accurate.

Salivary amylase = target: T1, Salivary amylase (Homo sapiens, UniProt P0DUB6)
T1 sequence (P0DUB6 16-511): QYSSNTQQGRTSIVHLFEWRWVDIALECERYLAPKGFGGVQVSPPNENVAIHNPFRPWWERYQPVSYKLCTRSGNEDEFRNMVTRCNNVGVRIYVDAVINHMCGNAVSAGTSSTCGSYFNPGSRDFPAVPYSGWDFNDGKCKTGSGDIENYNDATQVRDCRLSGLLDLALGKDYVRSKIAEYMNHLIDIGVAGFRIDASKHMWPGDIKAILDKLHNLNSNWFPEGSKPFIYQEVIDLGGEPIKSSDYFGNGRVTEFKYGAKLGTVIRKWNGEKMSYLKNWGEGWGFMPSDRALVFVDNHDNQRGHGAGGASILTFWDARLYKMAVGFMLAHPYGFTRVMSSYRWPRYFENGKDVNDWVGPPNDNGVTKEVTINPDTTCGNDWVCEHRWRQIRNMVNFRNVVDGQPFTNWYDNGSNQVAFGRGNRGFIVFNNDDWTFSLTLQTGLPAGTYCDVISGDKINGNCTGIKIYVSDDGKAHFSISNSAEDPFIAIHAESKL

[4] = test system: α-isomaltosylglucosaccharide-forming enzyme; assay: Transfer-acceptor specificity, Enzyme of Strain N75; format: biochemical, Bacillus globisporus N75; conditions: acceptor 1.6%, PINE-DEX #100 donor 4%, one unit/g donor, 30° C., pH 6.0, 24 hours
Summary of the method: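 Each candidate acceptor at 1.6% was combined with 4% partial starch hydrolysate donor and 1 unit/g donor (d.s.b.) of purified enzyme. Incubation ran 24 h at 30 °C, pH 6.0 for the C9, C11 and N75 enzymes and pH 8.4 for A19. Transfer products were detected by GLC for mono- and disaccharide acceptors and HPLC for trisaccharide acceptors.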

[5] = test system: Small intestinal mucosal enzyme; assay: Digestion test in vitro, small intestinal mucosal enzyme

Structure (SMILES)	content of cyclotetrasaccharide remained ([1]; 12 hours after the addition)	content of cyclotetrasaccharide remained ([1]; just after the addition, about 7% by weight added)	Assimilability [2]	Assimilability [3]	death of mice (mice; highest possible dose)	LD50 (mice; mice, data not so accurate)	Decomposition percentage (%) by digestive enzyme (Salivary amylase) [%]	Product of transferring reaction, Enzyme of Strain N75 [4]	Decomposition percentage (%) by digestive enzyme [5] [%]
OCC1OC2OCC3O[C@H](O[C@H]4C(O)C(CO)OC(OCC5O[C@H](O[C@@H](C1O)C2O)C(O)C(O)[C@@H]5O)C4O)C(O)C(O)[C@@H]3O (stereo partly drawn) [Cyclotetrasaccharide, cyclo{→6)-α-D-glucopyranosyl-(1→3)-α-D-glucopyranosyl-(1→6)-α-D-glucopyranosyl-(1→3)-α-D-glucopyransoyl-(1→}]	63.0 mg per one gram of the internal content of rat cecum	68.0 mg per one gram of the internal content of rat cecum	− (judged negative (−) when the post culture had a pH of 6.0 or higher)	− (judged negative (−) when the post culture had a pH of 6.0 or higher)	did not induce death of mice	at least 50 g/kg mouse body weight	0.0		
OC[C@@H](O)[C@@H](O[C@H]1O[C@H](CO)[C@@H](O)[C@H](O)[C@H]1O)[C@H](O)[C@@H](O)CO [Maltitol, reference compound]								++ (a saccharide-transferred product was detected in an amount over ten percent through transfer reaction to acceptor)	4.0

— patent publication US7811797B2, “α-isomaltosylglucosaccharide-forming enzyme, process and uses of the same” (Kabushiki Kaisha Hayashibara Seibutsu Kagaku Kenkyujo, priority 2000, dated 2010)
